Measured values from PubChem BioAssay AID248 (DTP/NCI, 2004).
Several values for one entry are separate records, joined by “and”; a condition that tells them apart may be missing. Equal values may be shown once. Toxic doses and inconclusive results are not listed. Rule as the data show it: active = T/C of 150% or more; inactive = T/C below 125%.

System: L1210 leukemia ip in BDF1 mice, survival T/C
Experiment: NCI In Vivo Anticancer Drug Screen. Data for tumor model L1210 Leukemia (intraperitoneal) in B6D2F1 (BDF1) mice
Settings: endpoint: mean survival time, higher = longer survival
How it was run: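 Transplanted-tumor mice were given test agent; controls received vehicle only. Survival readings from the two groups were divided (treated over control).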

[1] = dose: 12.0 mg/kg/injection, schedule: Q01DX009 (ip), vehicle: saline
[2] = dose: 25.0 mg/kg/injection, schedule: Q01DX009 (ip), vehicle: saline
[3] = dose: 25.0 mg/kg/injection, schedule: Q04DX003 (ip), vehicle: saline
[4] = dose: 50.0 mg/kg/injection, schedule: Q01DX009 (ip), vehicle: saline
[5] = dose: 50.0 mg/kg/injection, schedule: Q04DX003 (ip), vehicle: saline
[6] = dose: 100.0 mg/kg/injection, schedule: Q01DX009 (ip), vehicle: Klucel (hydroxypropylcellulose) (HPC)
[7] = dose: 100.0 mg/kg/injection, schedule: Q04DX002 (ip), vehicle: Klucel (hydroxypropylcellulose) (HPC)
[8] = dose: 200.0 mg/kg/injection, schedule: Q01DX009 (ip), vehicle: Klucel (hydroxypropylcellulose) (HPC)
[9] = dose: 200.0 mg/kg/injection, schedule: Q04DX002 (ip), vehicle: Klucel (hydroxypropylcellulose) (HPC)
[10] = dose: 400.0 mg/kg/injection, schedule: Q04DX002 (ip), vehicle: Klucel (hydroxypropylcellulose) (HPC)
[11] = dose: 100.0 mg/kg/injection, schedule: Q01DX001 (ip), vehicle: carboxymethylcellulose (CMC)
[12] = dose: 100.0 mg/kg/injection, schedule: Q01DX001 (ip), vehicle: saline
[13] = dose: 200.0 mg/kg/injection, schedule: Q01DX001 (ip), vehicle: carboxymethylcellulose (CMC)
[14] = dose: 200.0 mg/kg/injection, schedule: Q01DX001 (ip), vehicle: saline
[15] = dose: 400.0 mg/kg/injection, schedule: Q01DX001 (ip), vehicle: carboxymethylcellulose (CMC)
[16] = dose: 400.0 mg/kg/injection, schedule: Q01DX001 (ip), vehicle: saline

Measured: T/C

CCN(CC)CC(C)OC(=O)CCN1CC1 (stereo not drawn)
inactive: dose: 3.0 mg/kg/injection, schedule: Q01DX009 (ip), vehicle: saline 100 % of control | dose: 6.0 mg/kg/injection, schedule: Q01DX009 (ip), vehicle: saline 106 % of control | [1] 103 % of control | [2] 101 % of control | [3] 108 % of control | [4] 95 % of control | [5] 101 % of control | dose: 100.0 mg/kg/injection, schedule: Q04DX003 (ip), vehicle: saline 97 % of control and 111 % of control | dose: 200.0 mg/kg/injection, schedule: Q04DX003 (ip), vehicle: saline 103 % of control

O=C(Nc1nccs1)Nc1ccccc1Cl
inactive: [6] 96 % of control | [7] 91 % of control | [8] 91 % of control | [9] 98 % of control | dose: 400.0 mg/kg/injection, schedule: Q01DX009 (ip), vehicle: Klucel (hydroxypropylcellulose) (HPC) 96 % of control | [10] 107 % of control

CC(N)C(=O)Nc1ccc(C(=O)O)c(O)c1 (stereo not drawn)
inactive: dose: 100.0 mg/kg/injection, schedule: Q01DX009 (ip), vehicle: saline 109 % of control | dose: 200.0 mg/kg/injection, schedule: Q01DX009 (ip), vehicle: saline 102 % of control | dose: 400.0 mg/kg/injection, schedule: Q01DX009 (ip), vehicle: saline 106 % of control

O=C(Nc1ccccc1[N+](=O)[O-])C(=O)Nc1ccccc1[N+](=O)[O-]
inactive: dose: 50.0 mg/kg/injection, schedule: Q01DX009 (ip), vehicle: saline with Tween-80 91 % of control | dose: 100.0 mg/kg/injection, schedule: Q01DX009 (ip), vehicle: saline with Tween-80 86 % of control | dose: 100.0 mg/kg/injection, schedule: Q04DX003 (ip), vehicle: saline with Tween-80 95 % of control | dose: 200.0 mg/kg/injection, schedule: Q01DX009 (ip), vehicle: saline with Tween-80 94 % of control | dose: 200.0 mg/kg/injection, schedule: Q04DX003 (ip), vehicle: saline with Tween-80 93 % of control

COc1cc(Nc2ccc(Oc3ccc(O)c(CN)c3)cc2)c2ncccc2c1
inactive: dose: 75.0 mg/kg/injection, schedule: Q01DX001 (ip), vehicle: other 103 % of control | dose: 150.0 mg/kg/injection, schedule: Q01DX001 (ip), vehicle: other 97 % of control | dose: 300.0 mg/kg/injection, schedule: Q01DX001 (ip), vehicle: other 100 % of control

NC(=S)N/N=C\c1csc2ccccc12
inactive: [11] 92 % of control | [12] 96 % of control | [13] 92 % of control | [14] 107 % of control | [15] 95 % of control | [16] 94 % of control

NC(N)=Nc1ccc(NC(=O)c2ccc(C(=O)Nc3ccc(N=C(N)N)cc3)cc2)cc1
inactive: dose: 1.8 mg/kg/injection, schedule: Q01DX Z (ip), vehicle: carboxymethylcellulose (CMC) 122 % of control | dose: 3.7 mg/kg/injection, schedule: Q01DX Z (ip), vehicle: carboxymethylcellulose (CMC) 104 % of control | dose: 7.5 mg/kg/injection, schedule: Q01DX Z (ip), vehicle: carboxymethylcellulose (CMC) 88 % of control

Cc1cc(SCC(=O)O)sc1C
inactive: [7] 92 % of control | [9] 107 % of control | [10] 107 % of control

COc1ccc(OC)c(NC(=O)c2c(Br)c(Br)c(Br)c(Br)c2C(=O)O)c1
inactive: [6] 109 % of control | [8] 97 % of control

COc1ccccc1OCCOCCN(C)C1CCCCC1
inactive: dose: 12.5 mg/kg/injection, schedule: Q01DX009 (ip), vehicle: Klucel (hydroxypropylcellulose) (HPC) 93 % of control | dose: 25.0 mg/kg/injection, schedule: Q01DX009 (ip), vehicle: Klucel (hydroxypropylcellulose) (HPC) 94 % of control | dose: 25.0 mg/kg/injection, schedule: Q04DX002 (ip), vehicle: Klucel (hydroxypropylcellulose) (HPC) 102 % of control | dose: 50.0 mg/kg/injection, schedule: Q01DX009 (ip), vehicle: Klucel (hydroxypropylcellulose) (HPC) 96 % of control | dose: 50.0 mg/kg/injection, schedule: Q04DX002 (ip), vehicle: Klucel (hydroxypropylcellulose) (HPC) 105 % of control

CCCCCC[Si](C)(C)C
inactive: [11] 89 % of control | [13] 91 % of control | [15] 89 % of control

CCOC(=O)N1c2ccccc2C=CC1OCC (stereo not drawn)
inactive: [1] 93 % of control | dose: 12.0 mg/kg/injection, schedule: Q04DX003 (ip), vehicle: saline 119 % of control | [2] 89 % of control | [3] 113 % of control | [4] 89 % of control | [5] 94 % of control

Brc1ccc(N=N/C(=N/Nc2ccccc2)c2ccc(/C=N/Nc3ccccc3)cc2)cc1
inactive: dose: 50.0 mg/kg/injection, schedule: Q01DX001 (ip), vehicle: saline 95 % of control | [12] 101 % of control | [14] 95 % of control | [16] 91 % of control

S=C(Nc1ccccc1)c1ccccc1
inactive: [7] 89 % of control | [9] 92 % of control | [10] 105 % of control

CC12CCCCC1CC(=O)/C(=C\O)C2 (stereo not drawn)
inactive: dose: 25.0 mg/kg/injection, schedule: Q04DX002 (ip), vehicle: DMSO 94 % of control | dose: 50.0 mg/kg/injection, schedule: Q04DX002 (ip), vehicle: DMSO 90 % of control
